# Laboratory results taken from patent US7022719B2, “Preventing and reversing the formation of advance glycosylation endproducts” (Alteon, Inc., priority 1995, dated 2006).
# Like-named read-outs stand apart in the source and are kept apart here.
# Tests used:
# [1] = test system: AGE-BSA crosslinked to collagen; test: Cross-link Breaking Assay (sandwich enzyme immunoassay); assay type: biochemical; conditions: for Breaking Anti-AGE: anti-AGE antibody; for Breaking Anti-BSA: anti-BSA antibody
# Procedure: The present invention also involves a novel sandwich enzyme immunoassay used to ascertain the ability of test compounds to “break” or reverse already formed advanced glycosylation endproducts by detecting the breaking of AGE (Advanced glycosylation endproduct) moieties from AGE-crosslinked protein. This assay comprises: • a) incubation of AGE-modified bovine serum albumin (AGE BSA) on collagen-coated wells of microtiter plates for a period of 2–6 hours' at a temperature of 37° C.; • b) washing of the wells with PBS-Tween; • c) application of the test compounds to the washed wells of step b; • d) incubation of the test compounds applied to the washed wells for an additional 12–24 hours at a temperature of about 37° C.; and • e) detection of the AGE-breaking using an antibody raised against AGE-ribonuclease or cross-link breaking with an antibody against BSA.
# In order to ascertain the ability of the compounds of the instant invention to “break” or reverse already formed advanced glycosylation endproducts, a novel sandwich enzyme immunoassay was developed which detects breaking of AGE (Advanced glycosylation endproduct) moieties from AGE-crosslinked protein. The assay utilizes collagen-coated 96 well microtiter plates that are obtained commercially. […] Following an incubation period of 16 hours (37° C.) cross-link-breaking is detected using an antibody raised against AGE-ribonuclease or with an antibody against BSA. […] Details of the assay are as follows:
# Methods Preparation of Solutions and Buffers • 1. AGE-BSA stock solutions were prepared as follows. Sodium phosphate buffer (0.4 M) was prepared by dissolving 6 grams of monobasic sodium phosphate in 100 ml of distilled water, 7 grams of dibasic sodium phosphate (0.4 M) in 100 ml of distilled water and adjusting the pH of the dibasic solution to 7.4 with the monobasic solution. Sodium azide (0.02 grams) was added per 100 ml volume to inhibit bacterial growth. The BSA solution was prepared as follows: 400 mg of Type V BSA (bovine serum albumin) was added for each ml of sodium phosphate buffer (above). A 400 mM glucose solution was prepared by dissolving 7.2 grams of dextrose in 100 ml of sodium phosphate buffer (above). The BSA and glucose solutions were mixed 1:1 and incubated at 37° C. for 12 weeks. The pH of the incubation mixture was monitored weekly and adjusted to pH 7.4 if necessary. After 12 weeks, the AGE-BSA solution was dialyzed against PBS for 48 hours with four buffer changes, each at a 1:500 ratio of solution to dialysis buffer. Protein concentration was determined by the micro-Lowry method. The AGE-BSA stock solution was aliquoted and stored at −20° C. […] Working solutions for crosslinking and breaking studies were prepared as follows. Test compounds were dissolved in PBS and the pH was adjusted to pH 7.4 if necessary. AGE-BSA stock solution was diluted in PBS to measure maximum crosslinking and in the inhibitor solution for testing inhibitory activity of compounds. The concentration of AGE-BSA necessary to achieve the optimum sensitivity was determined by initial titration of each lot of AGE-BSA. • 3. Wash buffer (“PBS-Tween”) was, prepared as follows. PBS was prepared by dissolving the following salts in one liter of distilled water: NaCl, 8 grams; KC1, 0.2 gram, KH2PO4. […] Tween-20 was added to a final concentration of 0.05% (vol/vol). • 4. Substrates for detection of secondary antibody binding were prepared by diluting the HRP substrate buffer 1:10 in distilled water and mixing with ABTS chromogen 1:50 just prior to use. Assay Procedures • 1. Biocoat plates were blocked with 300 μl of “Superbloc”. Plates were blocked for one hour at room temperature and were washed with PBS-Tween three times with the Dynatech platewasher before addition of test reagents. • 2. Each experiment was set up in the following manner. The first three wells of the Biocoat plate were used for the reagent blank.
# [2] = test system: tail tendon collagen; test: CNBr peptide maps of tail tendon collagen from diabetic rats; assay type: biochemical, rat; conditions: tail tendon collagen of rats diabetic for 32 weeks, treated before cyanogen bromide digestion
# [3] = test system: cross-linked AGE-BSA; test: Breaking of AGE-BSA polymer gel (SDS-PAGE); assay type: biochemical; conditions: 10 mm, overnight at 37° C.
# Procedure: BSA and glucose solutions (100 ml each) were mixed in the one liter Coming sterile flask, screw-capped tight and incubated at 56° C. without shaking. The bottle was opened once a week to remove aliquots for testing. Reaction was continued for 9 weeks when AGE-BSA polymer formation was observed.
# Pieces of AGE-BSA gel was washed with PBS until no more protein was leached in the supernatant, blotted dry with paper towels. About 50 mg of the washed gel was incubated either with PBS or 10 mm 3-(2-phenyl-2-oxoethyl)thiazolium bromide (ALT 766) overnight at 37° C. The supernatants were analyzed by SDS-PAGE and stained with coommassie blue.
# [4] = test system: cross-linking of glycated bovine serum albumin (AGE-BSA) to rat tail tendon collagen; test: Cross-linking Inhibition Assay; conditions: for IC50: inhibition of AGE-BSA cross-linking to collagen-coated plate
# Procedure: The following method was used to evaluate the ability of the compounds of the present invention to inhibit the cross-linking of glycated bovine serum albumin (AGE-BSA) to the rat tail tendon collagen-coated 96-well plate.
# The blocking solution was removed from the wells by, washing the plate twice with PBS-'Tween 20 solution (0.05% Tween 20) using a NUNq-multiprobe or Dynatech ELISA-plate washer. Cross-linking of AGE-BSA (1 to 10 mg per well depending on the batch of AGE-BSA) to rat tail tendon collagen coated plate was performed with and without the testing ‘compound dissolved in PBS buffer at pH 7.4 at the desired concentrations by the, addition of 50 μl each of the AGE-BSA diluted in PBS or in the solution of test compound at 37° C. for 4 hours. Unbrowned BSA in PBS buffer with or without testing compound were added to the separate wells as the blanks. The un-cross-linked AGE-BSA was then removed by washing the wells three times with PBS-Tween buffer. The amount of AGE-BSA cross-linked to the tail tendon collagen-coated plate was then quantitated using a polyclonal antibody raised against AGE-RNase. After a one-hour incubation period, AGE antibody was removed by washing 4 times with PBS-Tween.
# The bound AGE antibody was then detected with the addition of horseradish peroxidase-conjugated secondary antibody—goat anti-rabbit immunoglobulin and incubation for 30 minutes. […] The reaction was allowed for an additional 15 minutes and the absorbance was read at 410 nm in a Dynatech plate reader.
# [5] = test system: IgG crosslinked to circulating red blood cells; test: RBC-IgG Assay in streptozotocin-induced diabetic rats; assay type: in vivo, rat; conditions: diabetic rats dosed orally at 10 mg/kg body weight; 19 days
# Procedure: The test compounds are administered to the test animals either orally or intraperitoneally, and the blood samples are collected are tested at various times, e.g. 4, 7 or 19 days, after administration to assess efficacy.
# Blood is collected from the rats in heparinized tubes and spun at 2000×g for 10 minutes, and the plasma carefully removed. Then, about 5 ml of PBS per ml blood is added, gently mixed, and then spun again. The supernatant is then removed by aspiration. The wash is then repeated two more times. Then, 0.2 to 0.3 ml of packed RBC is withdrawn from the bottom of the tube, using a pipette, and added to the PBS to make a 1 to 10 dilution. This dilution is then further diluted 1 to 25 and 1 to 50 in PBS. • B. Assay Set Up. • 1. Warm Superbloc to 37° C. • 2. Take a plate of Multiscreen-HA, 0.45 u. Cellulose ester membrane-sealed 96 well plate (Millipore MARAS45). • 3. Wet the wells with 100 μl of PBS. • 4. Add 300 μl of superblock to each well and incubate at 37° C. for one hour. • 5. Place the plate on the Millititer Vacuum holder, turn on the vacuum and press the plate down once for tight hold. The liquids in the wells will be suctioned off. Wash the wells with 300 μl of PBS-Tween 0.05%. • 6. Turn off the vacuum and add 100 μl of PBS to each well. • 7. […] Read OD of the solution collected in the Coming plate on Dynatech Plate reader Sample filter 1 and Ref. filter 4. • 17. […]
# [6] = test system: aortic wall protein cross-linking; conditions: diabetic rats; cited from earlier work
# [7] = test system: immunoglobulin trapping in the kidney; conditions: in vivo; cited from earlier work
# [8] = test system: glomerular basement membrane thickness; conditions: streptozotocin-diabetic rat model; cited from earlier work
# [9] = test system: red blood cells; conditions: in vivo; cited from earlier work
structure (smiles),measurement,setting,value
O=C(C[n+]1ccsc1)c1ccccc1.[Br-] [3-(2-phenyl-2-oxoethyl) thiazolium bromide],release of BSA from pre-formed AGE-mediated AGE-BSA/collagen complexes,"[1]; AGE-BSA reacted with unmodified, native collagen",concentration-dependent release of BSA
same,Breaking Anti-AGE,[1]; concentration not given,73%
same,Breaking Anti-BSA,[1]; concentration not given,98%
same,IC50,"[1]; detection with anti-AGE antibody, read-out: IC50 (mM) Anti-AGE",0.02 mM
same,IC50,"[1]; detection with anti-BSA antibody, read-out: IC50 (mM) Anti-BSA",0.014 mM
same,electrophoresis of CNBr-digested collagen after treatment,[2],"indistinguishable from untreated, non-diabetic (control) collagen"
same,"breaking of cross-linked AGE-BSA (SDS-PAGE, FIG. 2)",[3],breaking of cross-linked AGE-BSA
same,IC50,[4],11100 µM
CCCCN(CCCC)C(=O)C[n+]1csc(CCO)c1C.[Br-] [3-(2-Dibutylamino-2-oxoethyl]-4-methyl-5-(2′-hydroxyethyl)-thiazolium bromide],Breaking Anti-AGE,[1]; at 10 mM,25%
same,Breaking Anti-BSA,[1]; at 10 mM,38%
same,melting point,,78 to 80 °C
same,Relative Cross-link Inhibition (at 10 mM),[4],0.8% (10 mm)
Cc1c(CCO)sc[n+]1CC(=O)c1ccc2ccccc2c1.[Br-] [3-(2-(2′-naphthyl)-2-oxoethyl]-4-methyl-5-(2′-hydroxyethyl)-thiazolium bromide],Breaking Anti-AGE,[1]; at 10 mM,52%
same,Breaking Anti-BSA,[1]; at 10 mM,61%
same,Percent Inhibition (RBC-IgG),[5],40 ± 24 @ 19 days %
same,Relative Cross-link Inhibition (at 10 mM),[4],61%
N=C(N)NN [aminoguanidine],aortic wall protein cross-linking,[6],diminishes
same,immunoglobulin trapping in the kidney,[7],reduction
same,increased glomerular basement membrane thickness,[8],prevented
same,diabetes-induced changes in the deformability of red blood cells,[9],prevent
"COC(=O)C[n+]1csc(C)c1C.[Br-] [3-(2-methoxy-2-oxoethyl)-4,5-dimethylthiazolium bromide]",Breaking Anti-AGE,[1]; at 30 mM,63%
same,Breaking Anti-BSA,[1]; at 30 mM,47%
same,melting point,,184 to 185 °C (dec.)
same,IC50,[4],480 µM
